Like-named read-outs stand apart in the source and are kept apart here.
Assays:
Format in all cases: cell-based, Escherichia coli
wild-type (WT) K-12-Pore = assay: microbe, parasite or virus in culture; conditions: technical duplicate; for MIC: Escherichia coli
In short: (§1)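 Strains carry the fhuA ΔC/Δ4L pore integrated between glmS and pstS under a constitutive promoter, with pore activity checked by vancomycin susceptibility. Overnight LB cultures were adjusted in PBS pH 7.4 to OD600 ~1.0 and diluted 1/2000 into MHB II. 2-fold compound titrations were read by OD600 after 18 h at 37 °C.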

ΔtolC-Pore = assay: microbe, parasite or virus in culture; conditions: for Minimum inhibitory concentration (MIC), Pore ΔtolC: Table 10, with pore; for Minimum inhibitory concentration (MIC), Pore ΔtolC / Minimum inhibitory concentration, ΔtolC-Pore: technical duplicate; for Minimum inhibitory concentration, ΔtolC-Pore: Table 14A, porinated; for MIC: Escherichia coli, 18 h, read-out: Minimum inhibitory concentration, ΔtolC-Pore
In short: as §1

EKO-35-Pore = assay: MIC susceptibility profiling, porinated strain; conditions: for Fold changes of MICs: EKO-35-Pore compared to EKO-35-Pore (reference); for MIC: Escherichia coli
In short: as §1

EKO-35 araC::mdtEF = assay: MIC susceptibility profiling, efflux platform; conditions: for Fold change of MICs: EKO-35 araC::mdtEF compared to EKO-35; for Minimum Inhibitory Concentration, EKO-35 araC::mdtEF / MIC: Table 13A, non-porinated, technical duplicate; for MIC: Escherichia coli, read-out: Minimum Inhibitory Concentration, EKO-35 araC::mdtEF
In short: (§2)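 Broth MIC in cation-adjusted Mueller-Hinton (MHB II) following twofold compound titration in duplicate. Bacteria were prepared at OD600 ~1.0 in PBS and diluted 1/2000. Endpoint OD600 after 18 h at 37 °C was corrected using the pre-incubation reading.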

EKO-35 araC::acrB = assay: MIC susceptibility profiling, efflux platform; conditions: for Fold change of MICs: EKO-35 araC::acrB compared to EKO-35; for Minimum Inhibitory Concentration, EKO-35 araC::acrB / MIC: Table 13A, non-porinated, technical duplicate; for MIC: Escherichia coli, read-out: Minimum Inhibitory Concentration, EKO-35 araC::acrB
In short: as §2

E. coli ΔtolC = assay: microbe, parasite or virus in culture; conditions: for Minimum inhibitory concentration (MIC), ΔtolC: Table 10, without pore; for Minimum inhibitory concentration (MIC), ΔtolC / Minimum Inhibitory Concentration, ΔtolC: technical duplicate; for Minimum Inhibitory Concentration, ΔtolC: Table 13A, non-porinated; for MIC: Escherichia coli, 18 h, read-out: Minimum Inhibitory Concentration, ΔtolC
In short: as §2

[1] = system: wild-type E. coli K-12 str. BW25113; assay: microbe, parasite or virus in culture; conditions: technical duplicate; for MIC: Escherichia coli, BW25113
In short: as §2

E. coli EKO-35 = assay: microbe, parasite or virus in culture; conditions: for Fold change of MICs: EKO-35 compared to EKO-35 (reference); for Minimum inhibitory concentration (MIC), EKO-35 / Minimum Inhibitory Concentration, EKO-35 / MIC: technical duplicate; for MIC: Escherichia coli, EKO35
In short: as §2

[2] = Table 10, with pore, technical duplicate
[3] = Table 14A, porinated, technical duplicate
[4] = Table 10, with pore, read-out: Minimum inhibitory concentration (MIC), Pore K-12
[5] = Table 14A, porinated, read-out: Minimum inhibitory concentration, K-12 (WT)-Pore
[6] = Table 10, with pore, technical duplicate, read-out: Minimum inhibitory concentration (MIC), Pore EKO-35
[7] = Table 14A, porinated, technical duplicate, read-out: Minimum inhibitory concentration, EKO-35-Pore
[8] = Table 10, without pore, read-out: Minimum inhibitory concentration (MIC), K-12
[9] = Table 13A, non-porinated, read-out: Minimum Inhibitory Concentration, K-12
[10] = Table 10, without pore, read-out: Minimum inhibitory concentration (MIC), EKO-35
[11] = Table 13A, non-porinated, read-out: Minimum Inhibitory Concentration, EKO-35

Compound	Minimum inhibitory concentration (MIC), Pore K-12 (wild-type (WT) K-12-Pore; Table 10, with pore) [µg/mL]	Minimum inhibitory concentration, K-12 (WT)-Pore (wild-type (WT) K-12-Pore; Table 14A, porinated) [µg/mL]	Minimum inhibitory concentration (MIC), Pore ΔtolC (ΔtolC-Pore) [µg/mL]	Minimum inhibitory concentration, ΔtolC-Pore (ΔtolC-Pore) [µg/mL]	Fold changes of MICs (EKO-35-Pore) [fold]	Minimum inhibitory concentration (MIC), Pore EKO-35 (EKO-35-Pore; [2]) [µg/mL]	Minimum inhibitory concentration, EKO-35-Pore (EKO-35-Pore; [3]) [µg/mL]	Fold change of MICs (EKO-35 araC::mdtEF) [fold]	Minimum Inhibitory Concentration, EKO-35 araC::mdtEF (EKO-35 araC::mdtEF) [µg/mL]	Fold change of MICs (EKO-35 araC::acrB) [fold]	Minimum Inhibitory Concentration, EKO-35 araC::acrB (EKO-35 araC::acrB) [µg/mL]	Minimum inhibitory concentration (MIC), ΔtolC (E. coli ΔtolC) [µg/mL]	Minimum Inhibitory Concentration, ΔtolC (E. coli ΔtolC) [µg/mL]	Minimum inhibitory concentration (MIC), K-12 ([1]; Table 10, without pore) [µg/mL]	Minimum Inhibitory Concentration, K-12 ([1]; Table 13A, non-porinated) [µg/mL]	Fold change of MICs (E. coli EKO-35) [fold]	Minimum inhibitory concentration (MIC), EKO-35 (E. coli EKO-35; Table 10, without pore) [µg/mL]	Minimum Inhibitory Concentration, EKO-35 (E. coli EKO-35; Table 13A, non-porinated) [µg/mL]	MIC (wild-type (WT) K-12-Pore; [4]) [µg/mL]	MIC (wild-type (WT) K-12-Pore; [5]) [µg/mL]	also measured
COC(=O)c1sc(N2CCCC2)c(C#N)c1-c1cccs1 [compound 10]	160	160	5	5	1	10	10	1	160	1	160	10	10	160	160	1	160	160	–	–	–
COc1cccc2c1C(=O)c1c(O)c3c(c(O)c1C2=O)C[C@@](O)(C(=O)CO)C[C@@H]3O[C@H]1C[C@H](N)[C@H](O)[C@H](C)O1 [doxorubicin]	–	–	0.781	–	1	–	–	64	–	128	–	1.563	–	–	–	1	–	–	50	50	MIC (ΔtolC-Pore): 0.781 µg/mL; MIC (EKO-35-Pore; [6]): 0.781 µg/mL; MIC (EKO-35-Pore; [7]): 0.781 µg/mL; MIC (EKO-35 araC::mdtEF): 100 µg/mL; MIC (EKO-35 araC::acrB): 200 µg/mL; MIC (E. coli ΔtolC): 1.56 µg/mL; MIC [1, 8]: 200 µg/mL; MIC [1, 9]: 200 µg/mL; MIC (E. coli EKO-35; [10]): 1.56 µg/mL; MIC (E. coli EKO-35; [11]): 1.56 µg/mL
N#CC(=NNc1cccc(C(F)(F)F)c1)C(=O)c1ccsc1 [compound 3]	320	320	1.25	1.25	1	320	320	1	320	1	320	2.5	2.5	320	320	1	320	320	–	–	–
O=C(N[C@H](CO)[C@H](O)c1ccc([N+](=O)[O-])cc1)C(Cl)Cl [chloramphenicol]	–	–	0.781	–	1	–	–	1	–	8	–	1.563	–	–	–	1	–	–	3.12	3.12	MIC (ΔtolC-Pore): 0.781 µg/mL; MIC (EKO-35-Pore; read-out: Minimum inhibitory concentration (MIC), Pore EKO-35): 0.781 µg/mL; MIC (EKO-35-Pore; [7]): 0.781 µg/mL; MIC (EKO-35 araC::mdtEF): 0.781 µg/mL; MIC (EKO-35 araC::acrB): 6.25 µg/mL; MIC (E. coli ΔtolC): 1.56 µg/mL; MIC [1, 8]: 6.5 µg/mL; MIC [1, 9]: 6.25 µg/mL; MIC (E. coli EKO-35; [10]): 0.781 µg/mL; MIC (E. coli EKO-35; [11]): 0.781 µg/mL
[H]/N=C(/N)N[C@H]1[C@H](O)[C@@H](O)[C@H](O[C@@H]2O[C@@H](C)[C@](O)(C=O)[C@H]2O[C@@H]2O[C@@H](CO)[C@H](O)[C@@H](O)[C@@H]2NC)[C@@H](N/C(N)=N\[H])[C@@H]1O [Streptomycin]	–	–	1.563	–	1	–	–	2	–	2	–	3.125	–	–	–	1	–	–	12.5	12.5	MIC (ΔtolC-Pore): 1.56 µg/mL; MIC (EKO-35-Pore; [6]): 3.12 µg/mL; MIC (EKO-35-Pore; [7]): 3.12 µg/mL; MIC (EKO-35 araC::mdtEF): 6.25 µg/mL; MIC (EKO-35 araC::acrB): 6.25 µg/mL; MIC (E. coli ΔtolC): 3.12 µg/mL; MIC [1, 8]: 6.25 µg/mL; MIC [1, 9]: 6.25 µg/mL; MIC (E. coli EKO-35; [10]): 3.12 µg/mL; MIC (E. coli EKO-35; [11]): 3.12 µg/mL
CC(C)c1ccc(C=C(C#N)c2nc3ccccc3[nH]2)cc1 [compound 12]	320	320	0.625	0.625	1	160	160	1	320	1	320	1.25	1.25	320	320	1	320	320	–	–	–
